Measured values as given in publication PMC7918798, “Coumarins from Seseli devenyense Simonk.: Isolation by Liquid–Liquid Chromatography and Potential Anxiolytic Activity Using an In Vivo Zebrafish Larvae Model” (International Journal of Molecular Sciences, 2021).

Experiments:
animal model = conditions: cited from earlier work; for anxiolytic activity (percentage of time and number of arms entries in the open arm): elevated plus maze
GABAA receptor = conditions: cited from earlier work; for influence on GABAA receptor: compared with phellopterin
GABA/BDZ receptor = tested on: GABA/BDZ receptor; parameters: method as in PMID 8971802; conditions: cited from earlier work
5-dpf zebrafish larvae [1] = experiment: Zebrafish larvae 40 min continuous illumination: spontaneous locomotor activity and thigmotaxis (Phase 1); format: in vivo, Danio rerio; conditions: for spontaneous locomotor activity (average distance moved): 40 min continuous illumination
Method: (§1) The research protocol was adopted after Schnorr et al. (2012). The anxiolytic activity was evaluated in 24-well plates. The inner and outer zones of the well were delineated according to Schnorr et al. (2012). […] It could be also described as decreasing thigmotaxis. 1% DMSO in E3 solution was used as the negative control, 10 μM diazepam was used as the positive control. 32 larvae were used for each concentration.
(§2) The experimental procedure was divided into three stages: • (a) Preincubation: larvae were pre-incubated in a 1500 μL solution of tested compounds in individual wells of a 24-well plate at 28.5 °C, in dark, for 30 min. • (b) Acclimatization (min 0–10): plates were placed in an automated video recording bench station (ViewPoint, Lyon, France). Larvae were allowed to acclimatize to the test apparatus for 10 min. During this period, lights were kept on. • (c) Visual motor challenge (min 11–95): this stage experiment was divided into two phases: Phase 1—continuous illumination: larvae were subjected to continuous light for 40 min, with the purpose to determine the spontaneous locomotor activity and thigmotaxis behavior (before applying the factor causing the anxiety). Phase 2—light/dark transition: larvae were subjected to three cycles, each involving the 10-min lighting phase (continuous light) and the 5-min dark phase (anxiogenic factor).

5-dpf zebrafish larvae [2] = experiment: Zebrafish larvae light/dark transition challenge: locomotor activity and thigmotaxis (anxiolytic activity assay, Phase 2); format: in vivo, Danio rerio; conditions: for distance moved by the larvae in the central arena / time spent in the central area: dark phase vs light phase, concentration not stated
Method: as §1, §2

[3] = Shake-flask partition coefficient in HEMWat biphasic solvent systems; format: physicochemical
Method: The screening for suitable biphasic solvent systems to isolate the target coumarins from Seseli devenyense methanolic fruit extract (SDMFE) was performed by shake-flask experiments. The partition coefficient (Pi), defined as the ratio of the concentration of a solute in the stationary phase to its concentration in the mobile phase, was used as the screening parameter. The experimental protocol was previously descried by Widelski et al. (2018). Briefly, 1 mg of crude extract was dissolved in 4 mL of biphasic solvent systems obtained by mixing various volumes of hexane, ethyl acetate, methanol and water (HEMWat). After vigorous shaking, the flasks were left until the complete separation of the layers. Then, equal volumes of the upper and lower phase (0.5 mL) were taken, evaporated to dryness, dissolved again in methanol (1.0 mL) and analyzed by HPLC-DAD analysis, as descried below.
The preliminary analysis of the SDMFE, determination of the partition coefficient values and purity of collected fractions were assessed by HPLC-DAD. The HPLC-DAD analyses were performed on a Shimadzu HPLC (Shimadzu, Tokyo, Japan) equipped with automatic degasser (DGU-20A3R), quaternary pump (LC-20AD), auto-sampler (SIL-20AHT) and diode array detector (SPD-M20A). The separations were carried out on an Agilent Zorbax Eclipse XDB-C18 (Agilent, Santa Clara, CA, USA) (250 mm × 4.6 mm, 5 μm) column with a mobile phase consisting of water (solvent A) and methanol (solvent B). The following gradient was applied: 0 min: 50% B; 5 min: 60% B; 25 min: 80% B; 30–35 min: 100% B. The flow-rate was 1 mL/min; the column temperature was set at 25 °C. The injection volume of sample was 10 μL and detection was carried out at 320 nm.

[4] = parameters: method as in PMID 23803166; conditions: cited from earlier work
mice = conditions: 5 mg/kg; cited from earlier work
murine model = tested on: murine model; parameters: method as in PMID 33049351; conditions: cited from earlier work
zebrafish = tested on: zebrafish; parameters: method as in PMID 33049351; conditions: zebrafish model; cited from earlier work
[5] = 40 min continuous illumination vs DMSO-treated group, 12.5 µM
[6] = all concentrations (12.5, 25, 50 µM)
[7] = dark phase vs DMSO-treated group in dark phase, 12.5 μM
[8] = dark phase vs DMSO-treated group in dark phase, 25 μM
[9] = dark phase vs DMSO-treated group in dark phase, 50 μM
[10] = dark phase vs light phase within same group, 12.5 μM
[11] = dark phase vs light phase within same group, 25 μM
[12] = dark phase vs light phase within same group, 50 μM
[13] = light phase vs DMSO-treated group in light phase, 12.5 μM
[14] = light phase vs DMSO-treated group in light phase, 25 μM
[15] = light phase vs DMSO-treated group in light phase, 50 μM
[16] = solvent system II, hexane/ethyl acetate/methanol/water 6/5/6/5 (v/v/v/v)
[17] = dark phase vs DMSO-treated group in dark phase, 1.5 μM
[18] = dark phase vs DMSO-treated group in dark phase, 6 μM
[19] = dark phase vs DMSO-treated group in dark phase, 9 μM
[20] = dark phase vs DMSO-treated group in dark phase, 15 μM
[21] = dark phase vs light phase within same group, 1.5 μM
[22] = dark phase vs light phase within same group, 3 μM
[23] = dark phase vs light phase within same group, 6 μM
[24] = dark phase vs light phase within same group, 9 μM
[25] = dark phase vs light phase within same group, 15 μM

Compound: CC(C)=CCOc1c2occc2cc2ccc(=O)oc12 [imperatorin]
- anxiolytic activity (percentage of time and number of arms entries in the open arm) (animal model): significant anxiolytic activity
- influence on GABAA receptor (GABAA receptor): weaker influence

Compound: COc1cc2cc(Oc3ccc4ccc(=O)oc4c3)c(=O)oc2cc1O [daphnoretin]
- anxiolytic activity (animal model; rodent model of anxiety, tested on EPM): significant anxiolytic activity

Compound: O=c1ccc2cc3ccoc3cc2o1 [psolaren]
- mode of action at GABA/BDZ receptor (GABA/BDZ receptor): partial agonists

Compound: C/C=C(/C)C(=O)O[C@H]1[C@@H](O)c2c(ccc3ccc(=O)oc23)OC1(C)C [isolaserpitin]
- percentage of distance moved in the central arena (5-dpf zebrafish larvae [1]; [5]): increased
- percentage of time spent in the central arena (5-dpf zebrafish larvae [1]; [5]): increase
- percentage of distance moved in the central arena (5-dpf zebrafish larvae [1]; 40 min continuous illumination vs DMSO-treated group, 50 µM): increased
- spontaneous locomotor activity (average distance moved) (5-dpf zebrafish larvae [1]; [6]): has not influenced
- locomotor activity (average distance moved per 1-min time bin) (5-dpf zebrafish larvae [2]; [7]): significant increases
- percentage of distance moved in central area (5-dpf zebrafish larvae [2]; [7]): significant increases
- percentage of time spent in central area (5-dpf zebrafish larvae [2]; [7]): significant increases
- locomotor activity (average distance moved per 1-min time bin) (5-dpf zebrafish larvae [2]; [8]): significant increases
- percentage of distance moved in central area (5-dpf zebrafish larvae [2]; [8]): significant increases
- percentage of time spent in central area (5-dpf zebrafish larvae [2]; [8]): significant increases
- locomotor activity (average distance moved per 1-min time bin) (5-dpf zebrafish larvae [2]; [9]): significant increases
- percentage of distance moved in central area (5-dpf zebrafish larvae [2]; [9]): significant increases
- percentage of time spent in central area (5-dpf zebrafish larvae [2]; [9]): significant increases
- percentage of distance moved in central area (5-dpf zebrafish larvae [2]; [10]): increase
- percentage of time spent in central area (5-dpf zebrafish larvae [2]; [10]): increase
- percentage of distance moved in central area (5-dpf zebrafish larvae [2]; [11]): increase
- percentage of time spent in central area (5-dpf zebrafish larvae [2]; [11]): increase
- percentage of distance moved in central area (5-dpf zebrafish larvae [2]; [12]): increase
- distance moved by the larvae in the central arena (5-dpf zebrafish larvae [2]): significantly increased
- time spent in the central area (5-dpf zebrafish larvae [2]): significantly increased
- locomotor activity (average distance moved per 1-min time bin) (5-dpf zebrafish larvae [2]; [13]): significant increase
- percentage of distance moved in central area (5-dpf zebrafish larvae [2]; [13]): significant increase
- percentage of time spent in central area (5-dpf zebrafish larvae [2]; [13]): significant increase
- locomotor activity (average distance moved per 1-min time bin) (5-dpf zebrafish larvae [2]; [14]): significant increase
- locomotor activity (average distance moved per 1-min time bin) (5-dpf zebrafish larvae [2]; [15]): significant increase
- percentage of distance moved in central area (5-dpf zebrafish larvae [2]; [15]): significant increase
- percentage of time spent in central area (5-dpf zebrafish larvae [2]; [15]): significant increase
- anxiolytic activity (authors' overall statement) (5-dpf zebrafish larvae [2]; zebrafish larvae model): higher
- Partition Coefficients (Pi) [3, 16]: 1.01

Compound: C/C=C(/C)C(=O)O[C@H]1c2c(ccc3ccc(=O)oc23)OC(C)(C)[C@H]1O [d-laserpitin]
- spontaneous locomotor activity (average distance moved) (5-dpf zebrafish larvae [1]; [6]): has not influe nced
- locomotor activity (average distance moved per 1-min time bin) (5-dpf zebrafish larvae [2]; [7]): significant decreases
- percentage of distance moved in central area (5-dpf zebrafish larvae [2]; [7]): significant increases
- percentage of time spent in central area (5-dpf zebrafish larvae [2]; [7]): significant increases
- locomotor activity (average distance moved per 1-min time bin) (5-dpf zebrafish larvae [2]; [8]): significant decreases
- percentage of distance moved in central area (5-dpf zebrafish larvae [2]; [8]): significant increases
- percentage of time spent in central area (5-dpf zebrafish larvae [2]; [8]): significant increases
- locomotor activity (average distance moved per 1-min time bin) (5-dpf zebrafish larvae [2]; [9]): significant decreases
- percentage of distance moved in central area (5-dpf zebrafish larvae [2]; [9]): significant increases
- percentage of time spent in central area (5-dpf zebrafish larvae [2]; [9]): significant increases
- percentage of distance moved in central area (5-dpf zebrafish larvae [2]; [10]): increase
- locomotor activity (average distance moved per 1-min time bin) (5-dpf zebrafish larvae [2]; [11]): increase
- percentage of distance moved in central area (5-dpf zebrafish larvae [2]; [11]): increase
- percentage of time spent in central area (5-dpf zebrafish larvae [2]; [11]): increase
- locomotor activity (average distance moved per 1-min time bin) (5-dpf zebrafish larvae [2]; [12]): increase
- percentage of distance moved in central area (5-dpf zebrafish larvae [2]; [12]): increase
- percentage of time spent in central area (5-dpf zebrafish larvae [2]; [12]): increase
- distance moved by the larvae in the central arena (5-dpf zebrafish larvae [2]): significantly increased
- time spent in the central area (5-dpf zebrafish larvae [2]): significantly increased
- percentage of distance moved in central area (5-dpf zebrafish larvae [2]; [13]): decreased
- percentage of time spent in central area (5-dpf zebrafish larvae [2]; [13]): significant increase
- percentage of distance moved in central area (5-dpf zebrafish larvae [2]; [14]): significant increase
- percentage of time spent in central area (5-dpf zebrafish larvae [2]; [14]): significant increase
- percentage of distance moved in central area (5-dpf zebrafish larvae [2]; [15]): significant increase
- percentage of time spent in central area (5-dpf zebrafish larvae [2]; [15]): significant increase
- Partition Coefficients (Pi) [3, 16]: 0.84

Compound: CC(C)=CCOc1c2ccoc2cc2oc(=O)ccc12 [isoimperatorin]
- anxiolytic activity (percentage of time and number of arms entries in the open arm) (animal model): significant anxiolytic activity

Compound: COc1cc2ccc(=O)oc2cc1O [scopoletin, 7-hydroxy-6-methoxycoumarin]
- anxiolytic effects [4]: significant sustained anxiolytic effects

Compound: COc1c2ccoc2c(OC[C@H]2OC2(C)C)c2oc(=O)ccc12 [byakangelicol]
- mode of action at GABA/BDZ receptor (GABA/BDZ receptor): partial agonists

Compound: CC(C)=CCCC(C)=CCc1cc2ccc(=O)oc2cc1O [ostruthin, 6-(3,7-dimethyl-2,6-octadienyl)-7-hydroxycoumarin]
- anxiolytic effect (mice): anxiolytic effect

Compound: COc1c2ccoc2cc2oc(=O)ccc12 [bergapten]
- influence on GABAA receptor (GABAA receptor): weaker influence

Compound: CC(C)(O)C(O)Cc1c(O)ccc2ccc(=O)oc12 (stereo not shown) [devenyol]
- spontaneous locomotor activity (average distance moved) (5-dpf zebrafish larvae [1]; all concentrations (1.5, 3, 6, 9, 15 µM)): has not influenced
- anxiolytic activity (authors' overall statement) (5-dpf zebrafish larvae [2]; concentrations of 1.5, 6, 9 and 15 μM): active
- locomotor activity (average distance moved per 1-min time bin) (5-dpf zebrafish larvae [2]; [17]): decreases
- percentage of distance moved in central area (5-dpf zebrafish larvae [2]; [17]): significant increases
- percentage of time spent in central area (5-dpf zebrafish larvae [2]; [17]): significant increase
- percentage of distance moved in central area (5-dpf zebrafish larvae [2]; [18]): significant increases
- percentage of time spent in central area (5-dpf zebrafish larvae [2]; [18]): significant increase
- percentage of distance moved in central area (5-dpf zebrafish larvae [2]; [19]): significant increases
- percentage of time spent in central area (5-dpf zebrafish larvae [2]; [19]): significant increase
- percentage of distance moved in central area (5-dpf zebrafish larvae [2]; [20]): significant increases
- percentage of time spent in central area (5-dpf zebrafish larvae [2]; [20]): significant increase
- locomotor activity (average distance moved per 1-min time bin) (5-dpf zebrafish larvae [2]; [21]): significant increases
- percentage of distance moved in central area (5-dpf zebrafish larvae [2]; [21]): increase
- locomotor activity (average distance moved per 1-min time bin) (5-dpf zebrafish larvae [2]; [22]): significant increases
- percentage of distance moved in central area (5-dpf zebrafish larvae [2]; [22]): increase
- locomotor activity (average distance moved per 1-min time bin) (5-dpf zebrafish larvae [2]; [23]): significant increases
- percentage of distance moved in central area (5-dpf zebrafish larvae [2]; [23]): increase
- locomotor activity (average distance moved per 1-min time bin) (5-dpf zebrafish larvae [2]; [24]): significant increases
- percentage of distance moved in central area (5-dpf zebrafish larvae [2]; [24]): increase
- locomotor activity (average distance moved per 1-min time bin) (5-dpf zebrafish larvae [2]; [25]): significant increases
- percentage of distance moved in central area (5-dpf zebrafish larvae [2]; [25]): increase
- percentage of time spent in central area (5-dpf zebrafish larvae [2]; dark phase vs light phase within same group, all concentrations (1.5, 3, 6, 9, 15 μM)): increase
- distance moved by the larvae in the central arena (5-dpf zebrafish larvae [2]): significantly increased
- time spent in the central area (5-dpf zebrafish larvae [2]): significantly increased
- Partition Coefficients (Pi) ([3]; solvent system I, hexane/ethyl acetate/methanol/water 2/5/2/5 (v/v/v/v)): 0.80

Compound: COc1c2ccoc2c(OCC=C(C)C)c2oc(=O)ccc12 [phellopterin]
- mode of action at GABA/BDZ receptor (GABA/BDZ receptor): partial agonists
- IC50 (GABAA receptor): 360 nM

Compound: COc1c2occc2cc2ccc(=O)oc12 [xanthotoxin]
- effect on anxiety behaviors (thigmotaxis) (murine model): reversed U-shape effect
- effect on anxiety behaviors (thigmotaxis) (zebrafish): reversed U-shape effect

Compound: O=c1ccc2ccc(O)cc2o1 [umbelliferone, 7-hydroxycoumarin]
- anxiolytic effects [4]: significant sustained anxiolytic effects
